# Test results taken from article PMC9231138, “Dihydrotanshinone I Enhances Cell Adhesion and Inhibits Cell Migration in Osteosarcoma U−2 OS Cells through CD44 and Chemokine Signaling” (Molecules, 2022).
# Key:
# NRK−49F cells = assay: MTT cell proliferation assay, NRK−49F cells; type: cell-based, rat; details: Rattus norvegicus, 24 h, read-out: IC50 NRK−49F cells (24 h)
# Protocol: The effects of tanshinones (DS−1 to DS−5) on the proliferation of U−2 OS cells, HeLa cells, and NRK−49F cells were measured by the classical MTT method with minor modifications as follows. Cells were seeded at 5000 per well in 96-well plates, with each group being repeated in 5 wells, and were incubated for 12 h. DS−1 to DS−5 were added at gradient concentrations, then incubated for 24 and 48 h, respectively. Then, 20 μL MTT solution (solved in PBS, 5 mg/mL) was added to every well, and the cells were further incubated at 37 °C for 4 h until a purple precipitate was visible. The plate was centrifuged at 1000 rpm for 1 min; the supernatant was suctioned, and 150 μL of DMSO was added per well; the plate was shaken on a shaker protected from light for 15 min. We placed the plate in an enzyme marker and measured the absorbance values at a 490 nm wavelength.
# U−2 OS cells [1] = assay: Cell adhesion: trypsin digestion time, U−2 OS cells; type: cell-based, human; details: DS−1 7.5 μM for 24 h, trypsin at 25 °C; control within 120 s
# Protocol: We wondered if there were other pathways affecting cell migration besides EMT signals.
# Figure 7 DS−1 enhanced U−2 OS cells’ adhesion. (A) The morphological changes of U−2 OS cells treated with/without DS−1. Cells were treated with 0 and 7.5 μM DS−1 for 24 h, washed with PBS, and digested with trypsin at 25 °C under a microscope, and photos were taken every 30 s. The percentages of digested cells are recorded in (B). (C) Heatmap of genes related to the adherens’ junction in the control group and DS−1 group. (D) U−2 OS cells were treated with 0 and 7.5 μM DS−1 for 24 h, and the expression of CD44 was observed by immunofluorescence. (E,F) CD44 and GAPDH were analyzed by Western blot and calculated by Image J. (G) The relative expression of 4 kinds of MT-MMPs was analyzed by the transcriptome, as shown in the heatmap. (H) After being treated with DS−1, the relative expression of MT-MMP-1 was verified by RT-PCR. Values are the average of three independent experiments, * p < 0.05, ** p < 0.01, *** p < 0.005.
# slug = assay: RT-PCR slug mRNA in U−2 OS cells; type: cell-based, human; details: 24 h
# Protocol: (§1) Total RNA within cells was extracted by the RNAeasy™ Animal Long RNA Isolation Kit with Spin Column (Shanghai, Beyotime); the concentrations and OD260/OD280 and OD230/OD260 values were measured by NanoDrop. Five micrograms of RNA was used for reverse transcription; each sample was diluted to 16 μL, and 4 μL of synthesized premix solution (5×) was added, then the mixtures were placed in a 42 °C water bath for 10 min, then an 80 °C water bath for 10 min to deactivate reverse transcriptase. After reverse transcription, each sample was diluted to 140 μL. PCR amplification was carried out by the ABI700 real-time PCR system, and the amplification reaction was detected with a SYBR probe. After PCR, actin and GAPDH were used as internal references, and the relative standard curve method (2^−ΔΔcT) determined the relative expression of mRNA.
# CDK4 = assay: RT-PCR CDK4 mRNA in U−2 OS cells; type: cell-based, human; details: 24 h
# Protocol: as §1
# U−2 OS cells [2] = assay: RNA-seq differential gene expression; type: cell-based, human; details: DS−1 6.25 µM, 24 h
# Protocol: Sample preparation: U−2 OS cells were seeded in a 10 cm culture dish, and we cultured them to the logarithmic growth phase, suctioned the previous medium, and added new medium with DS−1 at 0 and 6.25 μM; each group was repeated two times. After 24 h of culture, the dish was washed with PBS reagent 3 times. One milliliter of TRIzol reagent was added to every dish for cell lysate and then collected in centrifuge tubes.
# Transcriptome sequencing and analysis were carried out by Novogene Bioinformatics Technology Co., Ltd. (Beijing, China).
# Raw data in the fastq format were firstly processed through in-house Perl scripts. In this step, clean data were obtained by removing reads containing adapter or containing ploy-N and low-quality reads from raw data. […]
# Reference genome and gene model annotation files were downloaded from the genome website directly. The index of the reference genome was built using Hisat2 v2.0.5 (https://github.com/DaehwanKimLab/hisat2, accessed on 4 May 2022), and paired-end clean reads were aligned to the reference genome using Hisat2 v2.0.5. FeatureCounts v1.5.0-p3 (https://github.com/byee4/featureCounts, accessed on 4 May 2022) was used to count the reads numbers mapped to each gene. Then the Fragments PerKilobase of transcript sequence per Millions […] (FPKMs) of each gene were calculated based on the length of the gene and reads’ count mapped to this gene. […]
smiles,measurement,setting,value
"Cc1cccc2c3c(ccc12)C1=C(C(=O)C3=O)[C@@H](C)CO1 [DS−1, 15,16-Dihydrotanshinone I]",IC50,NRK−49F cells,25 ± 1.98 µM
same,time of trypsin digestion,U−2 OS cells [1],≤ 210 s
same,"slug mRNA, fold of the control group",slug; DS−1 5.0 µM,0.58 ± 0.13 fold
same,"slug mRNA, fold of the control group",slug; DS−1 7.5 µM,0.45 ± 0.07 fold
same,"CDK4 mRNA, fold of the control group",CDK4; first of three DS−1 doses (2.5 µM per Fig. 5 legend),0.53 ± 0.06 fold
same,"CDK4 mRNA, fold of the control group",CDK4; second of three DS−1 doses (5.0 µM per Fig. 5 legend),0.37 ± 0.02 fold
same,"CDK4 mRNA, fold of the control group",CDK4; third of three DS−1 doses (7.5 µM per Fig. 5 legend),0.29 ± 0.05 fold
same,"number of genes downregulated (of 23,517 detected)",U−2 OS cells [2],4643 genes
same,"number of genes upregulated (of 23,517 detected)",U−2 OS cells [2],4104 genes
